Results published in publication PMC13020021 (International Journal for Parasitology: Drugs and Drug …, 2026).
Entries after “also recorded” stand apart in the source; their conditions may differ.

Key:
natural TRPMPZQ variants = assay: Ca2+ reporter assay, entire natural variation collection; format: cell-based, Schistosoma mansoni; settings: mean ± sd
Fasciola spp. TRPMPZQ = Fasciola spp. TRPMPZQ ref Park et al., 2021; cited from earlier work
[1] = tested on: TRPMPZQ of pseudophyllidean cestodes; settings: binding pocket variation of pseudophyllidean cestodes ref Sprague et al., 2025; cited from earlier work

Question: Which results are given for `O=C(C1CCCCC1)N1CC(=O)N2CCc3ccccc3C2C1` (racemic) [(±)-PZQ, praziquantel]?
Answer: average RA of the entire natural variation collection (natural TRPMPZQ variants): 1.2 ± 0.55; sensitivity of TRPMPZQ to PZQ (Fasciola spp. TRPMPZQ): insensitivity; also recorded: refractory; sensitivity to PZQ [1]: micromolar range
